Experimental findings from patent publication US9624239B2, “Protein kinase inhibitors” (Pharmascience Inc., priority 2011, dated 2017) are described below.

Experiment [1] addresses T1, histidine tagged recombinant human full-length Bruton Agammaglobulinemia Tyrosine Kinase (Btk) (Homo sapiens, UniProt Q06187).
T1 construct: recombinant human full-length Bruton Agammaglobulinemia Tyrosine Kinase (Btk); histidine tag
Put plainly: Btk kinase inhibition assay (fluorescence polarization, KinEASE FP Fluorescein Green). The note with it: 10 μM ATP, 250 μM substrate, 60 minutes, room temperature; Ki from IC50 by Cheng-Prusoff; read-out: ki50 (nM), Inhibition of Btk. Type of experiment: biochemical. How it is done: Kinase Binding Btk and Lck Kinase Inhibition Assay
Fluorescence polarization-based kinase assays were performed in 384 well-plate format using histidine tagged recombinant human full-length Bruton Agammaglobulinemia Tyrosine Kinase (Btk) or histidine tagged recombinant Human Lymphocyte-Specific Protein Tyrosine Kinase (Lck) and a modified protocol of the KinEASE™ FP Fluorescein Green Assay supplied from Millipore. Kinase reaction were performed at room temperature for 60 minutes in presence of 250 μM substrate, 10 μM ATP and variable test article concentrations. The reaction was stopped with EDTA/kinease detection reagents and the polarization measured on a Tecan 500 instrument. From the dose-response curve obtained, the IC50 was calculated using Graph Pad Prisms® using a non-linear fit curve. The Km for ATP on each enzyme was experimentally determined and the Ki values calculated using the Cheng-Prusoff equation (see: Cheng Y, Prusoff W H. (1973) Relationship between the inhibition constant (K1) and the concentration of inhibitor which causes 50 percent inhibition (I50) of an enzymatic reaction”. Biochem Pharmacol 22 (23): 3099-108).
ki values are reported in Tables 2 and 3: • a—Less than 100 nM; b—less than 1000 nM; c—more than 1000 nM
Background: Fluorescence polarisation rises when a labelled molecule tumbles more slowly, as on binding a larger partner.

The test system of a further experiment is mouse splenocytes. The experiment is described as follows: Splenic cell proliferation assay (anti-IgM stimulated B cell proliferation, Cell Titer-Glo). It counts as cell-based. The note with it: Splenocyte; CD1 mouse splenocytes, 1 h pre-treatment, 2.5 ug/ml anti-IgM F(ab')2 for 72 h; read-out: EC50 (nM), Inhibition of splenic cell proliferation. How it is done:
Splenic Cell Proliferation Assay
Splenocytes were obtained from 6 week old male CD1 mice (Charles River Laboratories Inc.). Mouse spleens were manually disrupted in PBS and filtered using a 70 μm cell strainer followed by ammonium chloride red blood cell lysis. Cells were washed, resuspended in Splenocyte Medium (HyClone RPMI supplemented with 10% heat-inactivated FBS, 0.5× non-essential amino acids, 10 mM HEPES, 50 uM beta mercaptoethanol) and incubated at 37° C., 5% CO2 for 2 h to remove adherent cells. Suspension cells were seeded in 96 well plates at 50,000 cells per well and incubated at 37° C., 5% CO2 for 1 h. Splenocytes were pre-treated in triplicate with 10,000 nM curves of Formula 1 compounds for 1 h, followed by stimulation of B cell proliferation with 2.5 ug/ml anti-IgM F(ab′)2 (Jackson ImmunoResearch) for 72 h. Cell proliferation was measured by Cell Titer-Glo Luminescent Assay (Promega). EC50 values (50% proliferation in the presence of compound as compared to vehicle treated controls) were calculated from dose response compound curves using GraphPad Prism Software.
EC50 values are reported in Table 4: • a—Less than 100 nM; b—less than 1000 nM; c—more than 1000 nM

T1 sequence (Q06187 whole entry): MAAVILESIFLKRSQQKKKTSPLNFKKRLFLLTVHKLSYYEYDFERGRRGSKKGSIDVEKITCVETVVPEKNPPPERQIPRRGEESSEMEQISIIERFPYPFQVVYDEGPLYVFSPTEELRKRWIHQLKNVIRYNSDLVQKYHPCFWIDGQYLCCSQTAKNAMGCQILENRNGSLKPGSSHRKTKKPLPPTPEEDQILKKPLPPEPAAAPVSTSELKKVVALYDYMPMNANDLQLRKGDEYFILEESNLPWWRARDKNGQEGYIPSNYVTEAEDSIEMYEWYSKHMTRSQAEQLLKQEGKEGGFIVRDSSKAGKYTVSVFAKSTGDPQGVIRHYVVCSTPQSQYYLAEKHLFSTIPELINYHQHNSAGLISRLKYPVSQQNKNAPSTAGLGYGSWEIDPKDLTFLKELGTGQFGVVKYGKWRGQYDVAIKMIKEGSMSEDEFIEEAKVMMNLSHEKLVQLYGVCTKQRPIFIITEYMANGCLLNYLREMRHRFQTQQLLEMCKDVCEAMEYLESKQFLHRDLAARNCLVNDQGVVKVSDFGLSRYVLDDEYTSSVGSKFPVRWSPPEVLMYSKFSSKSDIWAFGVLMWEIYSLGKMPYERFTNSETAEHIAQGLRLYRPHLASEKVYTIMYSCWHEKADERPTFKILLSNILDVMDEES

Consider `COc1cccc(COc2cccc(Oc3ccc(-n4c5c(c6ncnc(N)c64)C(C)OC5)cc3)c2)c1` (stereo not drawn) [Compound 103], for which, in experiment [1], the Ki is less than 100 nM. Moreover, the EC50 in the experiment on mouse splenocytes was in the range of 100 to 1000 nM.
For `CC1OCc2c1c1ncnc(N)c1n2-c1ccc(Oc2cccc(NC(=O)c3ccc(Cl)cc3)c2)cc1` (stereo not drawn) [Compound 120], in that order: less than 100 nM and 100 to 1000 nM.
In the same order, the values of `CC1OCc2c1c1ncnc(N)c1n2-c1ccc(Oc2cccc(OCc3cccc(C(F)(F)F)c3)c2)cc1` (stereo not drawn) [Compound 105] are less than 100 nM and 100 to 1000 nM.
For `Cc1ccc(Oc2ccc(-n3c4c(c5ncnc(N)c53)C(C)OC4)cc2)cc1` (stereo not drawn) [Compound 79], in that order: less than 1000 nM and greater than 1000 nM.
In the case of `CC1OCc2c1c1ncnc(N)c1n2-c1ccc(Oc2cccc(O[C@@H](C)c3ccccc3)c2)cc1` (stereo partly drawn) [Compound 86], in experiment [1], the Ki was less than 100 nM. Further, the EC50 in the experiment on mouse splenocytes is greater than 1000 nM.
In the case of `Nc1ncnc2c3c(n(-c4ccc(Oc5cccc(OCc6ccc(Cl)cc6)c5)cc4)c12)CCC3` [Compound 128], the Ki in experiment [1] was less than 100 nM. In addition, the EC50 in the experiment on mouse splenocytes lay in the range of 100 to 1000 nM.
For `CC1OCc2c1c1ncnc(N)c1n2-c1ccc(Oc2cccc(O[C@H](C)c3ccccc3)c2)cc1` (stereo partly drawn) [Compound 78], in that order: less than 1000 nM and greater than 1000 nM.
For `CC(C)C(=O)Nc1cccc(Oc2ccc(-n3c4c(c5ncnc(N)c53)C(C)OC4)cc2)c1` (stereo not drawn) [Compound 111], the Ki in experiment [1] was less than 1000 nM. Also, in the experiment on mouse splenocytes, the EC50 was greater than 1000 nM.
In the same order, the values of `CC1OCc2c1c1ncnc(N)c1n2-c1ccc(Oc2cccc(NC(=O)c3ccccc3F)c2)cc1` (stereo not drawn) [Compound 125] are less than 100 nM and 100 to 1000 nM.
For the molecule `COc1ccc(COc2cccc(Oc3ccc(-n4c5c(c6ncnc(N)c64)C(C)OC5)cc3)c2)cc1` (stereo not drawn) [Compound 104], the Ki in experiment [1] is less than 100 nM. Moreover, in the experiment with mouse splenocytes, the EC50 was 100 to 1000 nM.
In the same order, the values of `CCNc1cccc(Oc2ccc(-n3c4c(c5ncnc(N)c53)C(C)OC4)cc2)c1` (stereo not drawn) [Compound 66] are less than 1000 nM and 100 to 1000 nM.
Take `CC1OCc2c1c1ncnc(N)c1n2-c1ccc(Oc2cccc(OCc3ccc(Cl)cc3)c2)cc1` (stereo not drawn) [Compound 95]: in experiment [1], the Ki is less than 100 nM. The EC50 with mouse splenocytes is 100 to 1000 nM.
Regarding `Nc1ncnc2c3c(n(-c4ccc(Oc5cccc(OCc6cccnc6)c5)cc4)c12)CCC3` [Compound 62], the Ki in experiment [1] is less than 100 nM. In addition, in the experiment with mouse splenocytes, the EC50 lay in the range of 100 to 1000 nM.
In the same order, the values of `CCCC(=O)Nc1cccc(Oc2ccc(-n3c4c(c5ncnc(N)c53)C(C)OC4)cc2)c1` (stereo not drawn) [Compound 126] are less than 1000 nM and 100 to 1000 nM.
For `COc1ccc(C(=O)Nc2cccc(Oc3ccc(-n4c5c(c6ncnc(N)c64)C(C)OC5)cc3)c2)cc1` (stereo not drawn) [Compound 110], in that order: less than 1000 nM and greater than 1000 nM.
For `Nc1ncnc2c3c(n(-c4ccc(Oc5cccc(OCc6ccccc6)c5)cc4)c12)CCC3` [Compound 68], in that order: less than 100 nM and 100 to 1000 nM.
With `CC1OCc2c1c1ncnc(N)c1n2-c1ccc(Oc2cccc(OCC3CC3)c2)cc1` (stereo not drawn) [Compound 138], the Ki in experiment [1] was less than 100 nM. Moreover, the EC50 with mouse splenocytes was 100 to 1000 nM.
`CC1OCc2c1c1ncnc(N)c1n2-c1ccc(Oc2cccc(OCc3ccc(C#N)cc3)c2)cc1` (stereo not drawn) [Compound 64]: the Ki in experiment [1] was less than 1000 nM. Moreover, the EC50 in the experiment with mouse splenocytes is greater than 1000 nM.
For `Cc1nc(-c2cccc(Oc3ccc(-n4c5c(c6ncnc(N)c64)C(C)OC5)cc3)c2)cs1` (stereo not drawn) [Compound 90], in that order: less than 100 nM and 100 to 1000 nM.
For `CC1OCc2c1c1ncnc(N)c1n2-c1ccc(Oc2cccc(OCCc3ccccc3)c2)cc1` (stereo not drawn) [Compound 77], in that order: less than 100 nM and 100 to 1000 nM.
In the same order, the values of `CC1OCc2c1c1ncnc(N)c1n2-c1ccc(Oc2cccc(CCOc3ccccc3)c2)cc1` (stereo not drawn) [Compound 115] are less than 100 nM and 100 to 1000 nM.
On to `CC1OCc2c1c1ncnc(N)c1n2-c1ccc(Oc2cccc(OCc3cccc(F)c3)c2)cc1` (stereo not drawn) [Compound 99], for which, in experiment [1], the Ki is less than 100 nM. In addition, in the experiment on mouse splenocytes, the EC50 fell in the range of 100 to 1000 nM.
Consider `CC1OCc2c1c1ncnc(N)c1n2-c1ccc(Oc2cccc(OCc3cccc(N)c3)c2)cc1` (stereo not drawn) [Compound 116], for which the Ki in experiment [1] was less than 100 nM. The EC50 with mouse splenocytes lay within 100 to 1000 nM.
For `COc1ccccc1COc1cccc(Oc2ccc(-n3c4c(c5ncnc(N)c53)C(C)OC4)cc2)c1` (stereo not drawn) [Compound 108], in that order: less than 100 nM and 100 to 1000 nM.
Turning to `N#Cc1ccccc1OCc1cccc(Oc2ccc(-n3c4c(c5ncnc(N)c53)CCC4)cc2)c1` [Compound 144], in experiment [1], the Ki was less than 100 nM. Also, the EC50 in the experiment on mouse splenocytes lay in the range of 100 to 1000 nM.
In the same order, the values of `CC1OCc2c1c1ncnc(N)c1n2-c1ccc(Oc2cccc(COc3ccccc3)c2)cc1` (stereo not drawn) [Compound 85] are less than 100 nM and 100 to 1000 nM.
For `CC1OCc2c1c1ncnc(N)c1n2-c1ccc(Oc2cccc(OCC(N)=O)c2)cc1` (stereo not drawn) [Compound 83], in that order: greater than 1000 nM and greater than 1000 nM.
For `COc1cccc(OCc2cccc(Oc3ccc(-n4c5c(c6ncnc(N)c64)C(C)OC5)cc3)c2)c1` (stereo not drawn) [Compound 137], the Ki in experiment [1] is less than 100 nM. The EC50 with mouse splenocytes was 100 to 1000 nM.
For `COc1ccc(OCc2cccc(Oc3ccc(-n4c5c(c6ncnc(N)c64)C(C)OC5)cc3)c2)cc1` (stereo not drawn) [Compound 131], in that order: less than 100 nM and 100 to 1000 nM.
In the same order, the values of `COc1cccc(COc2cccc(Oc3ccc(-n4c5c(c6ncnc(N)c64)CCC5)cc3)c2)c1` [Compound 123] are less than 100 nM and 100 to 1000 nM.
For `CC1OCc2c1c1ncnc(N)c1n2-c1ccc(Oc2cccc(OCc3ccccc3F)c2)cc1` (stereo not drawn) [Compound 94], in that order: less than 100 nM and 100 to 1000 nM.
For the molecule `CC1OCc2c1c1ncnc(N)c1n2-c1ccc(Oc2cccc(OCc3cccc([N+](=O)[O-])c3)c2)cc1` (stereo not drawn) [Compound 113], the Ki in experiment [1] was less than 100 nM. For the same molecule, in the experiment on mouse splenocytes, the EC50 was 100 to 1000 nM.
As to `CC1OCc2c1c1ncnc(N)c1n2-c1ccc(Oc2cccnc2)cc1` (stereo not drawn) [Compound 72], the Ki in experiment [1] is greater than 1000 nM. The EC50 in the experiment with mouse splenocytes was greater than 1000 nM.
Consider `CC1OCc2c1c1ncnc(N)c1n2-c1ccc(Oc2cccc(OCc3cccc(C#N)c3)c2)cc1` (stereo not drawn) [Compound 89], for which, in experiment [1], the Ki is less than 100 nM. Besides, the EC50 in the experiment with mouse splenocytes fell in the range of 100 to 1000 nM.
`CC1OCc2c1c1ncnc(N)c1n2-c1ccc(Oc2cccc(OCCCN(C)C)c2)cc1` (stereo not drawn) [Compound 73]: the Ki in experiment [1] is greater than 1000 nM. In the experiment with mouse splenocytes, the EC50 is greater than 1000 nM.
For the molecule `CC1OCc2c1c1ncnc(N)c1n2-c1ccc(Oc2cccc(N(C)C)c2)cc1` (stereo not drawn) [Compound 70], in experiment [1], the Ki is less than 1000 nM. For the same molecule, the EC50 in the experiment with mouse splenocytes was in the range of 100 to 1000 nM.
In the same order, the values of `CC1OCc2c1c1ncnc(N)c1n2-c1ccc(Oc2cccc(OCC3CCOCC3)c2)cc1` (stereo not drawn) [Compound 67] are less than 100 nM and greater than 1000 nM.
As for `CC1OCc2c1c1ncnc(N)c1n2-c1ccc(Oc2cccc(OCc3ccccc3C(F)(F)F)c2)cc1` (stereo not drawn) [Compound 100], the Ki in experiment [1] was less than 100 nM. In the experiment on mouse splenocytes, the EC50 is less than 100 nM.
On to `CC(C)COc1cccc(Oc2ccc(-n3c4c(c5ncnc(N)c53)C(C)OC4)cc2)c1` (stereo not drawn) [Compound 135], for which the Ki in experiment [1] is less than 100 nM. In addition, the EC50 with mouse splenocytes lay within 100 to 1000 nM.
In the same order, the values of `N#Cc1ccccc1COc1cccc(Oc2ccc(-n3c4c(c5ncnc(N)c53)COC4)cc2)c1` [Compound 143] are less than 100 nM and 100 to 1000 nM.
For `CC1OCc2c1c1ncnc(N)c1n2-c1ccc(Oc2cccc(NCc3ccccc3)c2)cc1` (stereo not drawn) [Compound 69], in that order: less than 100 nM and greater than 1000 nM.
In the same order, the values of `CC1OCc2c1c1ncnc(N)c1n2-c1ccc(Oc2cccc(NS(C)(=O)=O)c2)cc1` (stereo not drawn) [Compound 76] are less than 1000 nM and greater than 1000 nM.
For `Nc1ncnc2c3c(n(-c4ccc(Oc5ccccc5)cc4)c12)CSC3` [Compound 63], the Ki in experiment [1] is greater than 1000 nM. Also, the EC50 in the experiment on mouse splenocytes was greater than 1000 nM.
Regarding `CC1OCc2c1c1ncnc(N)c1n2-c1ccc(Oc2ccc(C#N)cc2)cc1` (stereo not drawn) [Compound 71], the Ki in experiment [1] is greater than 1000 nM. Further, the EC50 in the experiment with mouse splenocytes is greater than 1000 nM.
Take `CC1OCc2c1c1ncnc(N)c1n2-c1ccc(Oc2cccc(OCc3cccc(C(N)=O)c3)c2)cc1` (stereo not drawn) [Compound 92]: the Ki in experiment [1] was less than 100 nM. Also, in the experiment on mouse splenocytes, the EC50 is 100 to 1000 nM.
